Laboratory results published in ChEMBL document CHEMBL5244275, “Geminal Diheteroatomic Motifs: Some Applications of Acetals, Ketals, and Their Sulfur and Nitrogen Homologues in Medicinal Chemistry and Drug Design” (J Med Chem, 2021).
≈ marks a conversion by molar mass, not a printed value. Numbered stars: 1 amine (or outer) side, 2 acyl side, 3 side chain; on linkers, the order of the positions; unused ones are H or OH. Bridge positions count the residues as written; N and C are the ends. Square brackets hold non-standard residues; d marks the D form. Peptide text beside a SMILES is read from it. * marks the point of attachment. Orn(4R-OH,5R-OCH2CH2NMe3+) = C[N+](C)(C)CCO[C@@H](N[*:3])[C@H](O)C[C@H](N[*:1])C(=O)[*:2]; pTerphenylCO(4''-OnC5H11) = CCCCCOc1ccc(-c2ccc(-c3ccc(C(=O)*)cc3)cc2)cc1; hTyr(3S-OH,4S-OH) = N[C@H](C(=O)O)[C@H](O)[C@@H](O)c1ccc(O)cc1; Pro(3S-OH,4S-Me) = C[C@H]1CN[C@H](C(=O)O)[C@H]1O; Hyp = O=C(O)[C@@H]1C[C@@H](O)CN1

How the values were obtained:
[1] = Ratio of drug concentration in brain to plasma in mouse at 30 mg/kg, po measured after 6 hrs; format: ADME, organism-based; conditions: read-out: BPR
[2] = Oral bioavailability in mouse; format: ADME, organism-based; conditions: in vivo
[3] = molecular target: Amyloid-beta precursor protein (Homo sapiens, UniProt P05067); experiment: Inhibition of amyloid beta (1 to […] ) (unknown origin)
Amyloid-beta precursor protein, sequence (P05067 whole entry): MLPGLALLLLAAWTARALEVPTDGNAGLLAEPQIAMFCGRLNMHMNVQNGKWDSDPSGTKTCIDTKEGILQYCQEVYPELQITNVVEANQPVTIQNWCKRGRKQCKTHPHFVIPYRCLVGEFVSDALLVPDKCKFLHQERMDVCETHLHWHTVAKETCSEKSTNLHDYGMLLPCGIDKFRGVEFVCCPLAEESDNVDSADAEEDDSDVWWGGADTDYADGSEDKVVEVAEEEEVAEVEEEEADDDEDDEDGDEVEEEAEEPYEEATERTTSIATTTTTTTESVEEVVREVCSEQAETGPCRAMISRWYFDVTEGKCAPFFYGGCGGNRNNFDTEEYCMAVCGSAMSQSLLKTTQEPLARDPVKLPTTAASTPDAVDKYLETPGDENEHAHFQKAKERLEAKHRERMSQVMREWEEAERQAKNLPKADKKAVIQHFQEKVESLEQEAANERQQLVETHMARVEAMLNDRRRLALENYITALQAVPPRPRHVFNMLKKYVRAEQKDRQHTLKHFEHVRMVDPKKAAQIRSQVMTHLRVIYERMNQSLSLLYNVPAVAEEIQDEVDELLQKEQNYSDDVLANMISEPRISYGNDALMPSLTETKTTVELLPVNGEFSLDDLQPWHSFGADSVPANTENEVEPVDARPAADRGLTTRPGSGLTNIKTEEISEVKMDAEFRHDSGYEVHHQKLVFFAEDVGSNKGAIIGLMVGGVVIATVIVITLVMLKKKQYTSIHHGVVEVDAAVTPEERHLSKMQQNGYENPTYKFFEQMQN

[4] = Half-life of the compound in aqueous solution at pH 6.0; format: physicochemical
[5] = Clearance in rat plasma assessed as half-life; format: ADME, cell-free
[6] = Clearance in dog plasma assessed as half-life; format: ADME, cell-free, Canis lupus familiaris
[7] = Oral bioavailability in rat; format: ADME, organism-based; conditions: in vivo
[8] = Half-life in rat at 10 mg/kg, po; format: ADME, organism-based; conditions: in vivo
[9] = molecular target: Sterol O-acyltransferase 1 (Homo sapiens, UniProt P35610); experiment: Inhibition of ACAT in human THP-1; format: cell-based
Sterol O-acyltransferase 1, sequence (P35610 whole entry): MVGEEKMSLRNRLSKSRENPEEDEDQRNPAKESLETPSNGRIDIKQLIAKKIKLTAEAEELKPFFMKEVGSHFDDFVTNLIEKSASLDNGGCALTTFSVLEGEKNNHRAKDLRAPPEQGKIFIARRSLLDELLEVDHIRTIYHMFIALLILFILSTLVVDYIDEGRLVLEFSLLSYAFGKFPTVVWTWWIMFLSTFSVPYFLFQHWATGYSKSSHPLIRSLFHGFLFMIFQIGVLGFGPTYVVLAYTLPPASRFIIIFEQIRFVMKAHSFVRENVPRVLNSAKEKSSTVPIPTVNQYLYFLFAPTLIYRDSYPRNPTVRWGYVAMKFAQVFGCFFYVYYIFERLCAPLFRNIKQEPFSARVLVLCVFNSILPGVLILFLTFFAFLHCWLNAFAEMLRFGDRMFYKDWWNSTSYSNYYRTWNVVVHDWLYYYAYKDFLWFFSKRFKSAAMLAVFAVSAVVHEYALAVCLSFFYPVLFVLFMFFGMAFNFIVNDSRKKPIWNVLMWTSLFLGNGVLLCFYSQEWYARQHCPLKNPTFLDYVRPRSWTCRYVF

[10] = Stability in human plasma assessed as drug degradation measured after 44 hrs; format: ADME, cell-free; conditions: read-out: Drug degradation
[11] = Stability in monkey plasma assessed as drug degradation measured after 44 hrs; format: ADME, cell-free, Macaca mulatta; conditions: rhesus monkey, read-out: Drug degradation
[12] = Stability in dog plasma assessed as drug degradation measured after 44 hrs; format: ADME, cell-free, Canis lupus familiaris; conditions: read-out: Drug degradation
[13] = Stability in rat plasma assessed as drug degradation measured after 44 hrs; format: ADME, cell-free; conditions: read-out: Drug degradation
[14] = Stability of the compound at pH 2 assessed as half-life; format: physicochemical; conditions: buffer
Plasmodium falciparum = experiment: Antiplasmodial activity against Plasmodium falciparum FCB1 assessed as inhibition of parasite growth; format: functional, organism-based
[15] = Antiplasmodial activity against Plasmodium berghei NK 173 infected in ICR (CD-1) mouse assessed as inhibition of parasite growth administered intraperitoneally for four days; conditions: NK 173, 96 h
[16] = Stability of the compound in 20% aqueous dioxane solution at 30 degreeC assessed as compound hydrolysis by measuring rate constant; format: physicochemical; conditions: buffer
[17] = Stability of the compound in 50% dioxane solution at 30 degreeC assessed as compound hydrolysis by measuring rate constant; format: physicochemical
[18] = Aqueous stability of the compound at pH 7 assessed as half-life; format: physicochemical; conditions: aqueous solution
[19] = Half-life in human; format: ADME
[20] = Tmax in human; format: ADME
[21] = Stability of the compound assessed as compound hydrolysis by measuring relative rate constant by titrimetric method; format: physicochemical
[22] = Drug metabolism at pH 2 assessed as parent compound remaining measured after 120 mins; format: physicochemical; conditions: read-out: Drug metabolism
Mus musculus = organism: Mus musculus; experiment: Analgesic activity in mouse assessed as protection against phenylbenzoquinone-induced writhing; format: functional
[23] = Tmax in rhesus monkey at 40 mg/kg, po; format: ADME, organism-based, Macaca mulatta; conditions: in vivo
[24] = Terminal half-life in rhesus monkey at 40 mg/kg, po; format: ADME, organism-based, Macaca mulatta; conditions: in vivo, read-out: beta t1/2 (converted)
[25] = Oral bioavailability in monkey; format: ADME, organism-based, Macaca mulatta; conditions: rhesus monkey, in vivo
[26] = molecular target: T1, Neutrophil elastase (Homo sapiens) (UniProt P08246); experiment: Time-dependent inhibition of human leukocyte elastase assessed as observed binding constant
T1 sequence (whole entry): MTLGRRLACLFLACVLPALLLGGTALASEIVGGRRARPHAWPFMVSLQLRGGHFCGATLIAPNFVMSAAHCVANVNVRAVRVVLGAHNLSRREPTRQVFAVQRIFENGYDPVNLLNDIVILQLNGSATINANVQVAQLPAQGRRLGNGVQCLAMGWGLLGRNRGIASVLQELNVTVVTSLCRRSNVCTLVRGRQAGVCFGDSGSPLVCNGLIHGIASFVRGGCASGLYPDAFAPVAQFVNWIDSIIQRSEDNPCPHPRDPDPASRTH

[27] = Terminal half-life in iv dosed rat; format: ADME, organism-based; conditions: in vivo, read-out: beta t1/2 (converted)
[28] = Terminal half-life in iv dosed rhesus monkey; format: ADME, organism-based, Macaca mulatta; conditions: in vivo, read-out: beta t1/2 (converted)
[29] = molecular target: Sodium/glucose cotransporter 2 (Homo sapiens, UniProt P31639); experiment: Inhibition of human SGLT2
Sodium/glucose cotransporter 2, sequence (P31639 whole entry): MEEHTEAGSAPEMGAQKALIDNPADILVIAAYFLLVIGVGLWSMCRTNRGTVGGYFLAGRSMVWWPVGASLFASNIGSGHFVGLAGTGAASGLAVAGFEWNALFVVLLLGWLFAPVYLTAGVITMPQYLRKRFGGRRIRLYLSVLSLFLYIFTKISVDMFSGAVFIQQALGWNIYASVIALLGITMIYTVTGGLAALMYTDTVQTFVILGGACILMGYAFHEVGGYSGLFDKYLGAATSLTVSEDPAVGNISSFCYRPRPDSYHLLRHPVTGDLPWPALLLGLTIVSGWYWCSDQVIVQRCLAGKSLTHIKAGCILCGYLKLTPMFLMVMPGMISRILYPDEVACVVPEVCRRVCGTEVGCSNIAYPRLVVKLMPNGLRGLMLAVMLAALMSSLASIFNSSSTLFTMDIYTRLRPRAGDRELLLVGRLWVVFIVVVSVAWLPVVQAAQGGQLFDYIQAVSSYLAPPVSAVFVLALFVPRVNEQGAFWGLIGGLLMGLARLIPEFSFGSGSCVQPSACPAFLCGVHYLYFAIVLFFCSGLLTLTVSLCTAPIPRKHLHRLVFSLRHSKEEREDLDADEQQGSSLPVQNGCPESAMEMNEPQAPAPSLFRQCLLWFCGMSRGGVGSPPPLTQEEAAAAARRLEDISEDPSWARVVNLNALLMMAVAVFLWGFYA

[30] = Oral bioavailability in dog; format: ADME, organism-based, Canis lupus familiaris; conditions: in vivo
[31] = molecular target: Somatostatin receptor type 2 (Homo sapiens, UniProt P30874); experiment: Inhibition of human SSTR2
Somatostatin receptor type 2, sequence (P30874 whole entry): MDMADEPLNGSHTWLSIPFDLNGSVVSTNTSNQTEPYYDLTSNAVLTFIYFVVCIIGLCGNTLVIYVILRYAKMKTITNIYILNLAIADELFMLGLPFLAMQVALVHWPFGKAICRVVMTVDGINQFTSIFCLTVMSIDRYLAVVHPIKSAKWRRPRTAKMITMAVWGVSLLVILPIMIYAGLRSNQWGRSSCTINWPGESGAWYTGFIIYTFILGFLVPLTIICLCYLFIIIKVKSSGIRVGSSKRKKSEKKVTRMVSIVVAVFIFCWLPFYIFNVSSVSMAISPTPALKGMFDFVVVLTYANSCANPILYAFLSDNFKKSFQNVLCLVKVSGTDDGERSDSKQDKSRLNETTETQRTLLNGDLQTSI

[32] = Aqueous solubility of the compound at pH 1.3 to 8; format: physicochemical; conditions: buffer
[33] = Stability of the compound at pH 7.30 assessed as degradation half life; format: physicochemical; conditions: buffer, pH 7.3
[34] = Stability of the compound at pH 1.3 assessed as degradation half life; format: physicochemical; conditions: buffer
[35] = molecular target: Muscarinic acetylcholine receptor M2 (Homo sapiens, UniProt P08172); experiment: Antagonist activity at muscarinic M2 receptor (unknown origin) assessed as inhibition constant
Muscarinic acetylcholine receptor M2, sequence (P08172 whole entry): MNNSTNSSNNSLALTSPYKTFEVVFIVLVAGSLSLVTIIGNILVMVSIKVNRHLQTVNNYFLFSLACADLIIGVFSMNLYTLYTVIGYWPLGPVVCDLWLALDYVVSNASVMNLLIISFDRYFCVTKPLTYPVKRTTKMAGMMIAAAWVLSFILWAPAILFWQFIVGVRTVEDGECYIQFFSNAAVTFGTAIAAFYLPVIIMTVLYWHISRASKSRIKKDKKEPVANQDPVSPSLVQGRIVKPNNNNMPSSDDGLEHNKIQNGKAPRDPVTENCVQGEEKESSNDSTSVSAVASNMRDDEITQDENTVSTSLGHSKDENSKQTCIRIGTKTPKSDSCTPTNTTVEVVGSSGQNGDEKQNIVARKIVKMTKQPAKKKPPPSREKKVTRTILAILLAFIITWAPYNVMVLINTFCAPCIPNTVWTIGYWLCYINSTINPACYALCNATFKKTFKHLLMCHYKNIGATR

[36] = Clearance in Chimpanzee at 0.5 mg/kg, iv bolus injection; format: ADME, organism-based, Pan troglodytes; conditions: in vivo
in vivo [37] = conditions: chimpanzee, iv, 0.5 mg/kg
in vivo [38] = conditions: chimpanzee, iv, 0.5 mg/kg; remark: listed apart in the source
Candida albicans [39] = experiment: Fungicidal activity against Candida albicans; format: functional
Candida albicans [40] = experiment: Antifungal activity against Candida albicans GS; format: functional, organism-based
[41] = Clearance in Chimpanzee at 0.5 mg/kg administered as iv infusion; format: ADME, organism-based, Pan troglodytes; conditions: in vivo
CCRF-CEM = experiment: Anticancer activity against human CCRF-CEM cells; format: functional, cell-based
HEp-2 = experiment: Anticancer activity against human HEp-2 cells; format: functional, cell-based
L1210 = experiment: Anticancer activity against mouse L1210 cells; format: functional, cell-based
K562 = experiment: Anticancer activity against human K562 cells; format: functional, cell-based
[42] = Oral bioavailability in rat relative to urinary excretion; format: ADME, organism-based; conditions: urine
[43] = Oral bioavailability in rat relative to plasma exposure; format: ADME, organism-based
Homo sapiens = organism: Homo sapiens; experiment: Inhibition of Leukotriene B4 production in human whole blood; format: functional
[44] = Inhibition of Leukotriene B4 production in human blood Polymorphonuclear neutrophil cells; format: functional, tissue-based

SMILES: CCC(=O)O[C@@H]([C@H]1C[C@@H](C)[C@H]2[C@H](O1)[C@H](O)[C@@]1(C)[C@@H]3CC[C@H]4C(C)(C)[C@@H](O[C@H]5CN(C6CN(C)C6)CCO5)CC[C@@]45C[C@@]35CC[C@]21C)C(C)(C)O
- Kp at 6 h [1]: 0.55
- bioavailability [2]: 45%
- IC50 [3]: 100 nM

SMILES: CO[C@@]1(NC(=O)CCC[C@@H](N)C(=O)O)C(=O)N2C(C(=O)O)=C(COC(N)=O)CS[C@@H]21
- half-life [4]: 459 h

SMILES: CCOc1ccc(Cc2cc([C@]34OC[C@](CO)(O3)[C@@H](O)[C@H](O)[C@H]4O)ccc2Cl)cc1 [ERTUGLIFLOZIN]
- half-life [5]: 4.1 h
- half-life [6]: 7.6 h

SMILES: CN1CCN(C2CCN(C(=O)CC3CCC4(CC3)OOC3(OO4)C4CC5CC(C4)CC3C5)CC2)CC1 (stereo unspecified)
- bioavailability [2]: 42%
- bioavailability [7]: 38%
- half-life [8]: 2.4 h

SMILES: Cc1cc(C)n(CCCC[C@H]2CO[C@H](c3nc(-c4ccccc4)c(-c4ccccc4)[nH]3)OC2)n1
- IC50 [9]: > 500 nM

SMILES: CCCCCOc1ccc(-c2ccc(-c3ccc(C(=O)N[C@H]4C[C@@H](O)[C@@H](OCC[N+](C)(C)C)NC(=O)[C@@H]5[C@@H](O)[C@@H](C)CN5C(=O)[C@H]([C@@H](C)O)NC(=O)[C@H]([C@H](O)[C@@H](O)c5ccc(O)cc5)NC(=O)[C@@H]5C[C@@H](O)CN5C(=O)[C@H]([C@@H](C)O)NC4=O)cc3)cc2)cc1 [REZAFUNGIN] ({pTerphenylCO(4''-OnC5H11)}-[Orn(4R-OH,5R-OCH2CH2NMe3+)]T[Hyp][hTyr(3S-OH,4S-OH)]T[Pro(3S-OH,4S-Me)]; lactam 1-C)
- metabolised at 44 h [10]: 7%
- metabolised at 44 h [11]: 6%
- metabolised at 44 h [12]: 21%
- metabolised at 44 h [13]: 9%

SMILES: CO[C@H]1O[C@@H]2O[C@@]3(C)CC[C@H]4[C@H](C)CC[C@@H]([C@H]1C)[C@@]24OO3
- half-life [14]: 11 h
- IC50 (Plasmodium falciparum): 3.5 nM
- ED50 [15]: 8.4 µmol/kg

SMILES: COc1ccc(C2(c3ccc(OC)cc3)OCCO2)cc1
- K [16]: 8.5 10^-1/M/s
- K [17]: 1.2 10^-1/M/s

SMILES: CC1(C)S[C@@H]2[C@H](NC(=O)[C@H](N)c3ccccc3)C(=O)N2[C@H]1C(=O)O [AMPICILLIN]
- half-life [18]: 0.25 h

SMILES: CN1CCN(C(=O)O[C@H]2c3nccnc3C(=O)N2c2ccc(Cl)cn2)CC1 [ESZOPICLONE]
- half-life [19]: 5 h
- Tmax [20]: 1 h

SMILES: CC1(C)OCCO1
- K [21]: 5.4 10^4No_unit

SMILES: c1ccc([C@]23OC[C@H](CCn4c2nc2ccccc24)O3)cc1
- remaining at 2 h [22]: 93.5%
- ED50 (Mus musculus): 30 mg/kg

SMILES: CCC[C@@H](NC(=O)N1C(=O)C(CC)(CC)[C@@H]1Oc1ccc(C(=O)N2CCN(C)CC2)cc1)c1ccc2c(c1)OCO2
- Tmax [23]: 8 h
- half-life [24]: 6 h
- bioavailability [7]: 65%
- bioavailability [25]: 39%

SMILES: CCC[C@@H](NC(=O)N1C(=O)C(CC)(CC)[C@@H]1Oc1ccc(CC(=O)O)cc1)c1ccc(C)cc1
- K [26]: 6.2 10^5/M/s
- half-life [24]: 6 h
- bioavailability [7]: 100%
- half-life [27]: 2.3 h
- bioavailability [25]: 23%
- half-life [28]: 5.8 h

SMILES: CCOc1ccc(Cc2cc([C@]34CO[C@](CO)(O3)[C@@H](O)[C@H](O)[C@H]4O)ccc2Cl)cc1
- IC50 [29]: 714 nM

SMILES: C[C@@H](c1c[nH]c2ccccc12)[C@H](C(=O)N[C@@H](CCCCN)C(=O)OC(C)(C)C)N1CCN(CCCc2ccccc2)C1=O
- bioavailability [30]: 5%
- Ki [31]: 3.6 nM

SMILES: COc1cc([C@@H]2c3cc4c(cc3[C@@H](O[C@@H]3O[C@@H]5CO[C@@H](C)O[C@H]5[C@H](O)[C@H]3O)[C@H]3COC(=O)[C@H]23)OCO4)cc(OC)c1O [ETOPOSIDE]
- solubility [32]: 116 µg/mL (≈ 197 µM)
- half-life [33]: 27.7 h
- half-life [34]: 2.88 h

SMILES: CCCS(=O)(=O)N1CCC(N2CCC(C3(c4ccc(S(=O)(=O)c5ccc6c(c5)OCO6)cc4)CCCO3)CC2)CC1 (stereo unspecified)
- Ki [35]: 5 nM

SMILES: CC[C@H](C)C[C@H](C)CCCCCCCCC(=O)N[C@H]1C[C@@H](O)[C@@H](OCCN)NC(=O)[C@@H]2[C@@H](O)CCN2C(=O)[C@H]([C@H](O)CCN)NC(=O)[C@H]([C@H](O)[C@@H](O)c2ccc(O)cc2)NC(=O)[C@@H]2C[C@@H](O)CN2C(=O)[C@H]([C@@H](C)O)NC1=O
- clearance [36]: 0.58 mL/min/kg
- half-life (in vivo [37]): 2.8 h
- half-life (in vivo [38]): 2.6 h
- MFC (Candida albicans [39]): < 0.06 µg/mL
- IC50 (Candida albicans [40]): 1 nM
- clearance [41]: 0.56 mL/min/kg

SMILES: Nc1nc(F)nc2c1ncn2[C@@H]1O[C@H](COP(=O)(O)O)[C@@H](O)[C@@H]1O [FLUDARABINE PHOSPHATE]
- IC50 (CCRF-CEM): 400 nM
- IC50 (HEp-2): 9000 nM
- IC50 (L1210): 3000 nM
- IC50 (K562): 150 nM

SMILES: Nc1ccn([C@@H]2CO[C@H](CO)O2)c(=O)n1 [TROXACITABINE]
- bioavailability [42]: 41%
- bioavailability [43]: 37%

SMILES: O=C1OCc2c1cc1cc(OCc3cccc(C4(O)CC5COC(C4)O5)c3)ccc1c2-c1ccoc1 (stereo unspecified)
- IC50 (Homo sapiens): 180 nM
- IC50 [44]: 7 nM
